Assay results taken from patent US20260216239A1 (Arizona Board of Regents on Behalf of the University of …, priority 2020, published 2026).
Entries after “also recorded” stand apart in the source; their conditions may differ.

Test system: Calloselasma rhodostoma venom
Test: Thrombelastography in human plasma of venom procoagulant activity after isolated exposure of venom to compounds
Type: biochemical
Details: venom 5 μg/ml in plasma
Method: Thrombelastographic analyses. The volumes of subsequently described plasmatic and other additives summed to a final volume of 360 μl. Samples were composed of 320 μl of plasma; 16.4 μl of PBS, 20 μl of 200 mM CaCl2), and 3.6 μl of PBS or venom mixture, which were pipetted into a disposable cup in a Thrombelastograph® hemostasis system (Model 5000, Haemonetics Inc., Braintree, MA, USA) at 37° C., and then rapidly mixed by moving the cup up against and then away from the plastic pin five times. The following viscoelastic parameters described previously (see, Nielsen V G (2019) J Thromb Thrombolysis 47, 73-79; Gessner G, et al., (2017) Eur J Pharmacol 815, 33-41; Nielsen V G, Wagner M T, Frank N (2020) Int J Mol Sci 21, 2082; Lazić D, Arsenijević A, Puchta R, Bugarčić ŽD, Rilak A (2016) Dalton Trans 45, 4633; Hanif M, et al., (2017) ChemPlusChem 82, 841-847) were measured: time to maximum rate of thrombus generation (TMRTG): this is the time interval (minutes) observed prior to maximum speed of clot growth; maximum rate of thrombus generation (MRTG): this is the maximum velocity of clot growth observed (dynes/cm^2/second); and total thrombus generation (TTG, dynes/cm^2), the final viscoelastic resistance observed after clot formation.
C. rhodostoma. […] The final concentration of this venom in plasma was 5 μg/ml.
Given the aforementioned, the experimental conditions utilized were: 1) V condition—venom in PBS; 2) Ru(II) condition—venom exposed to CORM-2; 3) Ru(III) condition—venom exposed to RuCl3; 4) Ru(II+III) condition—venom exposed to CORM-2 and RuCl3 simultaneously. After the 5 minute period at room temperature, 3.6 μl of one of these solutions was added to the plasma sample in the plastic thrombelastograph cup.
The volumes of subsequently described plasmatic and other additives summed to a final volume of 360 μl. Samples were composed of 320 μl of plasma; 16.4 μl of PBS, 20 μl of 200 mM CaCl2), and 3.6 μl of PBS or venom mixture, which were pipetted into a disposable cup in a Thrombelastograph® hemostasis system (Model 5000, Haemonetics Inc., Braintree, MA, USA) at 37° C., and then rapidly mixed by moving the cup up against and then away from the plastic pin five times. The following viscoelastic parameters described previously (see, Nielsen, V. G. J Thromb Thrombolysis 2019, 47, 73-79; Gessner, G.; et al., Eur J Pharmacol 2017, 815, 33-41; Nielsen, V. G.; Wagner, M. T.; Frank, N. Int J Mol Sci 2020, 21, 2082; Lazid, D.; et al., Dalton Trans 2016, 45, 4633; Hanif, M.; et al., ChemPlusChem 2017, 82, 841-847) were measured: time to maximum rate of thrombus generation (TMRTG): this is the time interval (minutes) observed prior to maximum speed of clot growth; maximum rate of thrombus generation (MRTG): this is the maximum velocity of clot growth observed (dynes/cm2/second); and total thrombus generation (TTG, dynes/cm2), the final viscoelastic resistance observed after clot formation.
C. rhodostoma. […] This venom was also exposed to 0 or 100 μM CORM-2 in the presence of 0 or 100 μM carboplatin in another series of experiments. The final concentration of this venom in plasma was 5 μg/ml.

[1] = 50 μM CORM-2, 50 μM RuCl3 or both
[2] = 100 μM carboplatin, 100 μM CORM-2 or both
[3] = venom exposed ≥5 min in PBS to 50 μM CORM-2, 50 μM RuCl3 or both
[4] = 100 μM CORM-3, 100 μM RuCl3 or both

Row | Molecule | maximum rate of thrombus generation (MRTG) [1] | time to maximum rate of thrombus generation (TMRTG) [1] | maximum rate of thrombus generation (MRTG) [2] | time to maximum rate of thrombus generation (TMRTG) [2] | total thrombus generation (TTG) [2] | procoagulant activity of venom [3] | maximum rate of thrombus generation (MRTG) [4] | time to maximum rate of thrombus generation (TMRTG) [4] | procoagulant activity of venom [4]
1 | [C-]#[O+].[C-]#[O+].[C-]#[O+].[C-]#[O+].[C-]#[O+].[C-]#[O+].[Cl][Ru][Cl].[Cl][Ru][Cl] [CORM-2, tricarbonyldichlororuthenium(II) dimer] | decrease | increased; also recorded: significant increase | decrease | significant increase | decrease | significantly decreased; also recorded: procoagulant activity inhibition |  |  | 
2 | [Cl][Ru]([Cl])[Cl] [RuCl3, ruthenium(III) chloride] | decrease | increase |  |  |  | significantly diminished | decrease | significant increase | 
3 | Tricarbonylchloro(glycinato)ruthenium [CORM-3] |  |  |  |  |  |  |  |  | no significant effect
